According to patent publication US9180164B2, “Compounds and methods of modulating angiogenesis” (THE CLEVELAND CLINIC FOUNDATION, priority 2011, dated 2015):

Key:
neovascularization = test: Matrigel plug assay, hemoglobin extracted from Matrigel; format: in vivo, mice; conditions: 50 mM peptide in Matrigel with VEGF (60 ng/mL), subcutaneous, 7 days
Experimental: Matrigel plug assays were performed in age- and sex-matched C57/B16 background mice. […] After 7 days, the animals were euthanized and dissected. Matrigel plugs were removed and digested using 5 mL Drabkin reagent and neovascularization was assessed using a hemoglobin assay as per the manufacturer's protocol (FIG. 16).
Angiogenic response was measured based on the amount of hemoglobin extracted from Matrigel.

HUVECs = test: Cell adhesion assay with inhibiting peptide; format: cell-based, Human; conditions: HUVECs on integrin ligand coated plates
Experimental: Cells were washed twice with sterile phosphate buffered saline (PBS) and re-suspended in serum-free DMEN. The cell suspensions were added to integrin ligand-coated wells and placed in a humidified incubator for 45 min. The wells were gently washed three times with DMEM and photographs were taken. The numbers of attached and spread cells per field were counted.
To examine endothelial cell adhesion to various ECM proteins following inhibition of expression of specific integrin subunits, HUVECs were plated on various integrin ligand coated plates and ability of EC to adhere to the distinct extracellular matrix components were tested after administration of a control peptide (YGRKKRRQRRR G DTANNPL FKEATSTFT-COOH) (SEQ ID NO: 43) or with equal amount of beta-3 integrin cytoplasmic domain inhibitory peptide (YGRKKRRQRRR G DTANNPLYpKEATSTFT-COOH) (SEQ ID NO: 44).

endothelial cells = test: VEGF-induced endothelial cell migration with inhibiting peptide; format: cell-based
Experimental: To examine the effect of the inhibiting peptide on endothelial cell migration, VEGF-induced migratory activity of endothelial cells was measured after administration of a control peptide (YGRKKRRQRRR G DTANNPL FKEATSTFT-COOH) (SEQ ID NO: 43) or with equal amount of beta-3 integrin cytoplasmic domain inhibitory peptide (YGRKKRRQRRR G DTANNPLYpKEATSTFT-COOH) (SEQ ID NO: 44) to the endothelial cells.

Sequence: YGRKKRRQRRR G DTANNPL Yp KEATSTFT-COOH
- hemoglobin concentration lower in Matrigel plugs compared to control peptide (neovascularization): at least 3.5 fold
- effect on cell adhesion compared to a control peptide (HUVECs): no effect on cell adhesion
- VEGF-induced endothelial cell migration compared to the control peptide (endothelial cells): prevented endothelial cell migration
- capillary formation compared to the control peptide (endothelial cells): inhibited capillary formation
